Active and inactive are the calls of the source. The calls are words filed in the database; no cut-off is given here.
What was measured:
V79-4 [1] = assay: Protective effect on hydrogen peroxide-induced cell damage in chinese hamster V79-4 cells assessed as decrease in DNA fragmentation level at 50 ug/ml by ELISA; type: functional, cell-based; conditions: Cricetulus griseus
[2] = DPPH radical scavenging activity at 1 ug/ml after 30 mins; type: functional
V79-4 [3] = assay: Protection against hydrogen peroxide-induced apoptosis in chinese hamster V79-4 cells assessed as cell survival by MTT assay; type: functional, Cricetulus griseus
V79-4 [4] = assay: ROS scavenging activity in chinese hamster V79-4 cells at 10 ug/mL after 30 mins by DCF-DA method; type: functional, Cricetulus griseus
[5] = DPPH radical scavenging activity at 50 ug/ml after 30 mins; type: functional
V79-4 [6] = assay: Protective effect on hydrogen peroxide-induced cell damage in chinese hamster V79-4 cells assessed as decrease in apoptotic sub-G1 DNA content at 50 ug/ml by flow cytometry; type: functional, Cricetulus griseus; set-up: scale not given: the % may be the effect or the level left
V79-4 [7] = assay: ROS scavenging activity in chinese hamster V79-4 cells at 1 ug/mL after 30 mins by DCF-DA method; type: functional, Cricetulus griseus
V79-4 [8] = assay: Inhibition of hydrogen peroxide-induced lipid peroxidation in chinese hamster V79-4 cells assessed as TBARS per mg of protein at 1 ug/mL; type: functional, Cricetulus griseus
V79-4 [9] = assay: Decrease in hydrogen peroxide-induced 8-OHdG in chinese hamster V79-4 cells at 50 ug/mL; type: functional, Cricetulus griseus
V79-4 [10] = assay: Inhibition of hydrogen peroxide-induced lipid peroxidation in chinese hamster V79-4 cells assessed as TBARS per mg of protein at 50 ug/mL; type: functional, Cricetulus griseus
[11] = target: Transcription factor Jun (Homo sapiens) (UniProt P05412); assay: Increase in transcriptional activity of AP1 transfected in V79-4 cells by luciferase assay; type: cell-based
Sequence of Transcription factor Jun (Homo sapiens) (P05412 whole entry): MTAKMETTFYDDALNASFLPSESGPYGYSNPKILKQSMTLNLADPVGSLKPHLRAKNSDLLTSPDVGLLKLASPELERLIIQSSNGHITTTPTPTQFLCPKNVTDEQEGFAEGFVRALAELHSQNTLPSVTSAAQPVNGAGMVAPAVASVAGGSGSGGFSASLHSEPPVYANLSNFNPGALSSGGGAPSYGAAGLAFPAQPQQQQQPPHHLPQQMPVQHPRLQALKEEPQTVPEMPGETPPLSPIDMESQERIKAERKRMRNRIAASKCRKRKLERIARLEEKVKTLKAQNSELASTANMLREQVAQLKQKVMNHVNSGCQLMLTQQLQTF

V79-4 [12] = assay: ROS scavenging activity in chinese hamster V79-4 cells at 50 ug/mL after 30 mins by DCF-DA method; type: functional, Cricetulus griseus
V79-4 [13] = assay: Decrease in hydrogen peroxide-induced 8-OHdG in chinese hamster V79-4 cells at 10 ug/mL; type: functional, Cricetulus griseus
[14] = DPPH radical scavenging activity at 10 ug/ml after 30 mins; type: functional
V79-4 [15] = assay: Protective effect on hydrogen peroxide-induced damage in chinese hamster V79-4 cells in presence of U0126 by MTT assay; type: functional, cell-based; conditions: Cricetulus griseus
V79-4 [16] = assay: Decrease in hydrogen peroxide-induced 8-OHdG in chinese hamster V79-4 cells at 1 ug/mL; type: functional, Cricetulus griseus
V79-4 [17] = assay: Effect on hydrogen peroxide-induced DNA damage in chinese hamster V79-4 cells assessed as decrease in phospho H2A.X expression; type: functional, cell-based; conditions: Cricetulus griseus
V79-4 [18] = assay: Activation of ERK in chinese hamster V79-4 cells assessed as phosphorylated ERK within 6 hrs; type: cell-based; conditions: Cricetulus griseus
V79-4 [19] = assay: Inhibition of hydrogen peroxide-induced lipid peroxidation in chinese hamster V79-4 cells assessed as TBARS per mg of protein at 10 ug/mL; type: functional, Cricetulus griseus

Row | Compound | Activity (V79-4 [1]) | Activity [2] [%] | Survival (V79-4 [3]) [%] | Activity (V79-4 [4]) [%] | Activity [5] [%] | Activity (V79-4 [6]) [%] | Activity (V79-4 [7]) [%] | Activity (V79-4 [8]) [µmol] | Activity (V79-4 [9]) [pg/mL] | Activity (V79-4 [10]) [µmol] | Activity [11] | Activity (V79-4 [12]) [%] | Activity (V79-4 [13]) [pg/mL] | Activity [14] [%] | Activity (V79-4 [15]) | Activity (V79-4 [16]) [pg/mL] | Activity (V79-4 [17]) | Activity (V79-4 [18]) | Activity (V79-4 [19]) [µmol]
1 | COc1ccc(-c2coc3cc(O)c(OC)c(O)c3c2=O)cc1 [IRISOLIDONE] | Active | 10 | 48 | 58 | 44 | 36 | 41 | 1.2 | 6409 | 0.8 | Active | 66 | 7956 | 19 | inactive | 9280 | Active | Active | 1
2 | COc1ccc(-c2coc3cc(O[C@@H]4O[C@H](COC5OC[C@@H](O)[C@H](O)[C@H]5O)[C@@H](O)[C@H](O)[C@H]4O)c(OC)c(O)c3c2=O)cc1 (stereo not given in full) [KAKKALIDE] |  | 8 |  | 37 | 28 |  | 29 |  |  |  |  | 51 |  | 12 |  |  |  |  | 

Reference: ChEMBL document CHEMBL1143962, “Protective effect of irisolidone, a metabolite of kakkalide, against hydrogen peroxide induced cell damage via antioxidant effect” (2008)
